Entries after “also recorded” stand apart in the source; their conditions may differ.
What was measured:
[1] = test system: mES cells; assay: DR-GFP reporter assay (HR repair of endonuclease generated DSB); assay type: cell-based, mouse; conditions: 100 nM, compared to DMSO
[2] = test system: CCRF-SB cells; assay: Viability of human B cell tumor cell line (Trypan Blue); assay type: cell-based
Description: (§1) FIG. 15A depicts an analysis of primary WT (AID+/+, closed markers) and AID−/− (open markers) murine B cell proliferation under activating conditions (αCD40 and IL-4 on days 0 and 2) and treated with the indicated doses of C-1523 for 4 days. Measurement of cell proliferation was determined by Trypan Blue staining and counting of viable, non-staining, cells via hemocytometer. Data are represented as the mean cell count for each condition. FIG. 15B depicts data from experiments in which primary B cells from A were stained with PI on day 4 and analyzed via flow cytometry for the percentage of cells that were non-viable, PI-positive (PI+). FIG. 15C depicts RT-PCR analysis of AID expression in cultured human cell lines. Water (H2O) and RNA from HEK293T cells were employed as negative controls for template and AID expression, respectively, and human activated B lymphocyte RNA (Stim B) was used as a positive control. GAPDH expression was included as a loading control. FIG. 15D depicts viability analysis of CCRF-SB, MEC-1, and MEC-2 cells after 6 days in culture with the indicated concentrations of C-1523, 150 μM DIDS, or DMSO vehicle. Viability was determined by Trypan Blue staining and counting via hemocytometer. FIG. 15E depicts representative immunofluorescence images of phosphorylated γH2AX (green) and nuclei (DAPI, blue) in primary murine splenic B cells from AID−/− (left) or AID+/+ (WT, right) mice. Cells were activated with αCD40 and IL-4 and treated with 100 nM C-1523 for 3 d. Scale bars, 10 μM. FIG. 15F depicts quantitation of foci observed in AID−/− and WT cells represented in FIG. 15E. Data were grouped into categories of cells with low (1-2 foci per nucleus), moderate (3-10 foci per nucleus), or high (>10 foci per nucleus) amounts of DNA damage. Error bars represent the SEM for three independent experiments.
(§2) FIG. 23 depicts graphs of viability analysis for human cancer cell lines treated with C-1523. The acute lymphoblastic leukemia (ALL) line CCRF-SB and the chronic lymphocytic leukemia lines MEC1 and MEC2 were treated with vehicle (DMSO) or 100 nM C-1523, and viability was measured by Tyrpan blue exclusion. All three lines express AID and are sensitive to C-1523 treatment.
(§3) The effect of C-1523 on the viability of AID-expressing human B cell tumor cell lines was further tested ([…]). CCRF-SB is an acute lymphoblastic leukemia cell line derived from a buffy coat preparation (Foley et al., 1968). MEC-1 and MEC-2 are cell lines derived from a patient with chronic lymphocytic leukemia at two different timepoints (before and after fludarabine and rituximab therapy) (Stacchini et al., 1999). C-1523 was tested in these cell lines over a dose range from 1 to 1000 nM, in log increments, and compared to 150 μM DIDS. […] Biphasic or hormetic responses for small molecules can reflect a number of biochemical/biological mechanisms (Calabrese, 2013).
(§4) Cell lines and cell culture. […] Immunofluorescence.

[3] = test system: MEC-2 cells; assay: as above; assay type: cell-based
Description: as §1, §2, §3, §4

[4] = test system: primary, activated WT versus AID−/− cells; assay: RNASeq and Ingenuity Pathways Analysis; assay type: cell-based, mouse; conditions: 100 nM, 60 hours after activation
Description: FIG. 17A depicts a schematic for the fold-change (FC) analysis performed on RNASeq data from the indicated treatment groups. RNA was prepared from cells 60 hours after activation (αCD40 and IL-4) and treatment with DMSO or 100 nM C-1523. Pathway analysis was performed by Ingenuity Pathway Analysis (IPA). FIGS. 17B-17D depict the top 10 pathways for the Unique to FC1 (FIG. 17B) and FC2 (FIG. 17C) analysis and all pathways for the FC1>FC2 (DOWN) and F2>FC1 (UP) analysis (FIG. 17D). Within each bar (in white), is the ratio of genes from that pathway implicated by IPA. The dashed line indicates the 0.05 significance threshold for significant (bars crossing it) vs non-significant pathways. The mechanism of cell death is non-apoptotic and is via mitotic catastrophe.
C-1523 induces non-apoptotic cell death via non-apoptotic mitotic catastrophe. The surprising lack of apoptotic cell death induced by C-1523 prompted us to evaluate gene expression signatures to identify other potential cell death pathways. […]
RNASeq Analysis. […] The filtered and trimmed reads were then aligned to mm10 using tophat (v2.0.7). The aligned bam file was then passed through Cufflinks (v2.0.2) and reads per gene are counted using htseq-count. edgeR. […]

[5] = test system: MEC-1 cells; assay: Micronuclei assay; assay type: cell-based, human; conditions: 100 nM for 3 days
[6] = test system: AID+/+ or AID−/− B-cells; assay: Cell cycle analysis by propidium iodide staining and flow cytometry; assay type: cell-based; conditions: 100 nM, up to 96 hours
Description: AID+/+ or AID−/− B-cells were cultured with 100 nM and cell cycle profiles were determined by propidium iodide staining and flow cyotmetry at intervals up to 96 hours. Non-activated (CD40) cells were used as a negative control; activated cells treated with the microtuble poison colcemid (ACT+colcemid) were used as a positive control.
AID+/+ or AID−/− B-cells were cultured with 100 nM and cell cycle profiles were determined by propidium iodide staining and flow cyotmetry at intervals up to 96 hours. Non-activated (CD40) cells were used as a negative control; activated cells treated with the microtuble poison colcemid (ACT+colcemid) were used as a positive control. Nuclei fragmentation analysis of primary, AID expressing B-cells treated with 100 nM C-1523 was conducted (FIG. 22).

## CC(=O)Nc1ccc(/C=C/c2ccc(NC(=S)NC(C)C)cc2S(=O)(=O)O)c(S(=O)(=O)O)c1 [C-1523, (E)-5-acetamido-2-(4-(3-isopropylthioureido)-2-sulfonatostyryl)benzenesulfonate]
[1]
  reduction of percentage of GFP-positive cells: about 40%
[2]; 100 nM
  sensitivity (viability): sensitive
[2]; 1000 nM
  viability reduction at highest dose: less than that observed after treatment with 100 nM
[2]; 1 to 1000 nM
  concentration of greatest viability reduction: 100 nM
[2]; 1 to 1000 nM, 6 days
  viability response over dose range: dose-dependent viability response
[3]; 100 nM
  sensitivity (viability): sensitive
[3]; 1 to 1000 nM, 6 days
  viability response over dose range: sensitive at all doses tested
[4]
  most significantly altered pathways (IPA): did not identify any previously annotated cell death pathways
[5]
  micronuclei in treated cells versus vehicle: approximately 3.5 fold
[6]
  effect on cell cycle: minimal effect on cell cycle; also recorded: minimal differences

Reference: patent US10927075B2, “Compositions and methods relating to the treatment of cancer, autoimmune disease, and neurodegenerative disease” (THE JACKSON LABORATORY, priority 2014, dated 2021)
